Assays:
Homo sapiens [1] = organism: Homo sapiens; test: Antitumor activity in renal cell carcinoma patient with previous sunitinib treatment assessed as progression free survival; type: functional
Homo sapiens [2] = organism: Homo sapiens; test: Antitumor activity in renal cell carcinoma patient with previous cytokine therapies assessed as progression free survival; type: functional
Homo sapiens [3] = organism: Homo sapiens; test: Antitumor activity in patient with metastatic renal cell carcinoma assessed as progression free survival; type: functional
Homo sapiens [4] = organism: Homo sapiens; test: Antitumor activity in patient with metastatic renal cell carcinoma assessed as overall survival; type: functional
Homo sapiens [5] = organism: Homo sapiens; test: Antitumor activity in renal cell carcinoma patient with 2 previous VEGFR TKI treatment assessed as progression free survival (reference value: 1.8 months); type: functional
Homo sapiens [6] = organism: Homo sapiens; test: Antitumor activity in renal cell carcinoma patient without previous VEGFR TKI treatment assessed as progression free survival (reference value: 1.9 months); type: functional
CAKI-2 = test: Antitumor activity against human Caki2 cells xenografted in nuded mouse assessed as inhibition of tumor growth at 10 mg/kg, po; type: functional; details: CAKI-2, po, read-out: TGI
Homo sapiens [7] = organism: Homo sapiens; test: Antitumor activity in patient with renal cell carcinoma assessed as progression free survival during phase 3 non-inferiority trial; type: functional
Homo sapiens [8] = organism: Homo sapiens; test: Antitumor activity in treatment-naive and cytokine-refractory patient with renal cell carcinoma assessed as progression free survival (reference value: 4.2 months); type: functional
Homo sapiens [9] = organism: Homo sapiens; test: Antitumor activity in patient with renal cell carcinoma assessed as overall survival during phase 3 non-inferiority trial; type: functional
HUVEC [10] = test: cells; details: Homo sapiens
HUVEC [11] = test: cells; details: Homo sapiens; remark: listed apart in the source
Homo sapiens [12] = organism: Homo sapiens; test: Antitumor activity in patient with renal cell carcinoma assessed as progression free survival (reference value: 2.8 months); type: functional
Homo sapiens [13] = organism: Homo sapiens; test: Antitumor activity in patient with renal cell carcinoma assessed as overall survival (reference value: 15.2 months); type: functional
Homo sapiens [14] = organism: Homo sapiens; test: Antitumor activity in patient with metastatic renal cell carcinoma assessed as overall survival during phase 3 trial; type: functional
Homo sapiens [15] = organism: Homo sapiens; test: Antitumor activity in patient with metastatic renal cell carcinoma assessed as objective response during phase 3 trial; type: functional
Homo sapiens [16] = organism: Homo sapiens; test: Antitumor activity in patient with metastatic renal cell carcinoma assessed as progression free survival during phase 3 trial; type: functional
Homo sapiens [17] = organism: Homo sapiens; test: Antitumor activity in patient with renal cell carcinoma assessed as progression free survival during phase 2 trial; type: functional
Homo sapiens [18] = organism: Homo sapiens; test: Antitumor activity in patient with metastatic renal cell carcinoma assessed as progression free survival co-treated with IFNalpha during phase 3 trial; type: functional

Question: For `CNC(=O)c1ccccc1Sc1ccc2c(/C=C/c3ccccn3)n[nH]c2c1` [AXITINIB], which Survival (Homo sapiens [1]) is on record?
Answer: The Survival was 4.8 months.

Question: And the Survival (Homo sapiens [2])?
Answer: The Survival was 12.1 months.

Question: For `COc1cc2nccc(Oc3ccc(NC(=O)C4(C(=O)Nc5ccc(F)cc5)CC4)cc3)c2cc1OC` [CABOZANTINIB], which Survival (Homo sapiens [3]) is on record?
Answer: The Survival was 7.4 months.

Question: `CO[C@H]1C[C@@H]2CC[C@@H](C)[C@@](O)(O2)C(=O)C(=O)N2CCCC[C@H]2C(=O)O[C@H]([C@H](C)C[C@@H]2CC[C@@H](OCCO)[C@H](OC)C2)CC(=O)[C@H](C)/C=C(\C)[C@@H](O)[C@@H](OC)C(=O)[C@H](C)C[C@H](C)/C=C/C=C/C=C/1C` [EVEROLIMUS] was tested. Which Survival (Homo sapiens [4]) did it give?
Answer: Its Survival is 16.5 months.

Question: What about the Survival (Homo sapiens [5]) of the same compound?
Answer: Its Survival is 4 months.

Question: And the Survival (Homo sapiens [6])?
Answer: The Survival was 5.4 months.

Question: And the Survival (Homo sapiens [3])?
Answer: Its Survival is 3.9 months.

Question: How did the inhibition in vivo at 10 mg/kg (CAKI-2) turn out when `Cc1ccc(Nc2nccc(N(C)c3ccc4c(C)n(C)nc4c3)n2)cc1S(N)(=O)=O` [PAZOPANIB] was run?
Answer: The inhibition in vivo at 10 mg/kg was 77%.

Question: And the Survival (Homo sapiens [7])?
Answer: The Survival was 8.4 months.

Question: And the Survival (Homo sapiens [8])?
Answer: The Survival was 9.2 months.

Question: And the Survival (Homo sapiens [9])?
Answer: The Survival was 28.3 months.

Question: And the IC50 (HUVEC [10])?
Answer: Its IC50 is 21 nM.

Question: What about the IC50 (HUVEC [11]) of the same compound?
Answer: Its IC50 is 720 nM.

Question: Which Survival (Homo sapiens [12]) does the source give for `CNC(=O)c1cc(Oc2ccc(NC(=O)Nc3ccc(Cl)c(C(F)(F)F)c3)cc2)ccn1` [SORAFENIB] here?
Answer: Its Survival is 5.5 months.

Question: What about the Survival (Homo sapiens [1]) of the same compound?
Answer: The Survival was 3.4 months.

Question: And the Survival (Homo sapiens [2])?
Answer: Its Survival is 6.5 months.

Question: What about the Survival (Homo sapiens [13]) of the same compound?
Answer: Its Survival is 17.8 months.

Question: For `CCN(CC)CCNC(=O)c1c(C)[nH]c(/C=C2\C(=O)Nc3ccc(F)cc32)c1C` [SUNITINIB], which Survival (Homo sapiens [14]) is on record?
Answer: The Survival was 26.4 months.

Question: And the Activity (Homo sapiens [15])?
Answer: The Activity was 31%.

Question: What about the Survival (Homo sapiens [9]) of the same compound?
Answer: Its Survival is 29.1 months.

Question: And the Survival (Homo sapiens [16])?
Answer: The Survival was 11 months.

Question: What about the Survival (Homo sapiens [17]) of the same compound?
Answer: Its Survival is 7.8 months.

Question: How did the Survival (Homo sapiens [16]) turn out when `CO[C@H]1C[C@@H]2CC[C@@H](C)[C@@](O)(O2)C(=O)C(=O)N2CCCC[C@H]2C(=O)O[C@H]([C@H](C)C[C@@H]2CC[C@@H](OC(=O)C(C)(CO)CO)[C@H](OC)C2)CC(=O)[C@H](C)/C=C(\C)[C@@H](O)[C@@H](OC)C(=O)[C@H](C)C[C@H](C)/C=C/C=C/C=C/1C` [TEMSIROLIMUS] was run?
Answer: The Survival was 10.9 months.

Question: And the Survival (Homo sapiens [18])?
Answer: The Survival was 8.4 months.

Source: ChEMBL document CHEMBL4270503, “Recent developments in small molecule therapies for renal cell carcinoma” (Eur J Med Chem, 2017)
